How the values were obtained:
Test in all cases: Hematological cell line viability/apoptosis flow cytometry assay
Assay type in all cases: cell-based
[1] = test system: EHEB cell line; conditions: EHEB (CLL), 120 h
Summary of the method: (§1)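 After plating, cells receive increasing compound concentrations (0.00015 to 10 μM; final DMSO 0.1%). Following a 120-hour incubation, Annexin V and DRAQ7 staining is quantified by flow cytometry. Curve fitting yields viability IC50/Emax and apoptosis EC50/Ymax, together with AUC values.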

[2] = test system: Farage cell line; conditions: Farage (DLBCL PMBL); 120 h
Summary of the method: as §1

[3] = test system: JJN-3 cell line; conditions: JJN-3 (MM, PCL), 120 h
Summary of the method: as §1

[4] = test system: MDS-L cell line; conditions: 120 h
Summary of the method: as §1

[5] = test system: Mino cell line; conditions: Mino (MCL); 120 h
Summary of the method: as §1

[6] = test system: NU-DHL-1 cell line; conditions: NU-DHL-1 (DLBCL GCB); 120 h
Summary of the method: as §1

[7] = test system: OCI-LY3 cell line; conditions: OCI-LY3 (DLBCL ABC), 120 h
Summary of the method: as §1

[8] = test system: OPM-2 cell line; conditions: OPM-2 (MM), 120 h
Summary of the method: as §1

[9] = test system: RL cell line; conditions: RL (FL); 120 h
Summary of the method: as §1

[10] = test system: SU-DHL-4 cell line; conditions: SU-DHL-4 (DLBCL GCB); 120 h
Summary of the method: as §1

[11] = test system: SU-DHL-6 cell line; conditions: SU-DHL-6 (DLBCL GCB); 120 h
Summary of the method: as §1

[12] = test system: U-2904 cell line; conditions: U-2904 (DLBCL), 120 h
Summary of the method: as §1

[13] = test system: U-2973 cell line; conditions: 120 h
Summary of the method: as §1

[14] = test system: ULA cell line; conditions: ULA (DLBCL), 120 h
Summary of the method: as §1

[15] = Homo sapiens, read-out: % Viable Cells IC50

O=C1CC[C@H](N2C(=O)c3cccc(NCc4ccc(CN5CC(N6CCOCC6)C5)cc4F)c3C2=O)C(=O)N1 [Compound 1, (S)-2-(2,6-dioxopiperidin-3-yl)-4-((2-fluoro-4-((3-morpholinoazetidin-1-yl)methyl)benzyl)amino)isoindoline-1,3-dione]
% Viable Cells AUC [1]: 319.3
% Viable Cells Emax [1]: 28.68%
Apoptosis AUC [1]: 65.03
Apoptosis Ymax [1]: 8.42%
EC50 [1]: 0.506 µM
IC50 ([1]; read-out: % Viable Cells IC50): 0.0303 µM
% Viable Cells AUC [2]: 10.16
% Viable Cells Emax [2]: 0.7936%
Apoptosis AUC [2]: 728.7
Apoptosis Ymax [2]: 84.17%
IC50 [3, 15]: 0.0004 µM
% Viable Cells AUC [3]: 278.2
% Viable Cells Emax [3]: 21.6%
Apoptosis AUC [3]: 57.97
Apoptosis Ymax [3]: 26%
% Viable Cells AUC [4]: 182.6
% Viable Cells Emax [4]: 146.7%
Apoptosis AUC [4]: 425.4
Apoptosis Ymax [4]: 100%
EC50 [4]: 1.56 µM
IC50 ([4]; read-out: % Viable Cells IC50): 0.0513 µM
% Viable Cells AUC [5]: 62.67
% Viable Cells Emax [5]: 5.638%
Apoptosis AUC [5]: 968.2
Apoptosis Ymax [5]: 97.04%
% Viable Cells AUC [6]: 12.37
% Viable Cells Emax [6]: 0.4919%
Apoptosis AUC [6]: 981.8
Apoptosis Ymax [6]: 99.17%
IC50 [7, 15]: > 10 µM
% Viable Cells AUC [7]: 965.1
% Viable Cells Emax [7]: 85.63%
Apoptosis AUC [7]: 24.63
Apoptosis Ymax [7]: 4.493%
EC50 ([8]; Homo sapiens): 1.32 µM
IC50 [8, 15]: 0.0003 µM
% Viable Cells AUC [8]: 210.5
% Viable Cells Emax [8]: 6.65%
Apoptosis AUC [8]: 212.6
Apoptosis Ymax [8]: 63.00%
% Viable Cells AUC [9]: 234.8
% Viable Cells Emax [9]: 21.55%
Apoptosis AUC [9]: 115.9
Apoptosis Ymax [9]: 13.93%
% Viable Cells AUC [10]: 296.2
% Viable Cells Emax [10]: 23.44%
Apoptosis AUC [10]: 209
Apoptosis Ymax [10]: 25.33%
% Viable Cells AUC [11]: 19.94
% Viable Cells Emax [11]: 0.2469%
Apoptosis AUC [11]: 920.7
Apoptosis Ymax [11]: 95.92%
% Viable Cells AUC [12]: 334.1
% Viable Cells Emax [12]: 7.609%
Apoptosis AUC [12]: 456.1
Apoptosis Ymax [12]: 77.39%
EC50 [12]: 3.29 µM
IC50 ([12]; read-out: % Viable Cells IC50): 0.201 µM
% Viable Cells AUC [13]: 853.4
% Viable Cells Emax [13]: 19.45%
Apoptosis AUC [13]: 391.9
Apoptosis Ymax [13]: 60.8%
% Viable Cells AUC [14]: 0.5518
% Viable Cells Emax [14]: 0.02523%
Apoptosis AUC [14]: 995.3
Apoptosis Ymax [14]: 99.76%
EC50 [14]: 0.00179 µM
IC50 ([14]; read-out: % Viable Cells IC50): 0.00099 µM

From patent publication US11578056B2, “Solid forms comprising (S)-2-(2,6-dioxopiperidin-3-yl)-4-((2-fluoro-4-((3-morpholinoazetidin-1-yl)methyl)benzyl)amino)isoindoline-1,3-dione and salts thereof, and compositions comprising and methods of using the same” (Celgene Corporation, priority 2019, dated 2023)
